Source: patent US7622475B2, “EP2 agonists” (Pfizer Inc, priority 2006, dated 2009)

Tests used:
[1] = test system: ocular hypertensive non-human primates; test: IOP change after topical application in ocular hypertensive non-human primates; type: in vivo; settings: for change in vivo at 0.1 %: Primates, read-out: ΔΔEmax (%); for ΔΔEmax (mm Hg): dosed hypertensive eye vs vehicle
Protocol: Tables 2 and 3 describe the intraocular pressure (IOP) changes that were seen following topical application of EP2 agonists in ocular hypertensive non-human primates. Typically, compounds in suitable formulations were dosed topically and IOP was measured using tonometry. Changes in IOP between vehicle treatment followed by treatment with EP2 compounds were assessed over time in the dosed hypertensive eye. ΔΔ Emax reflects the difference in IOP from EP2 compound-treated eye over that seen for vehicle-treated eye at the timepoint wherein maximum IOP reduction for compound was seen. The percent ΔΔ Emax was the percentage change in IOP reduction conferred by compound over that for vehicle (set at 100%). Tmax represents the time point at which maximum IOP reduction of compound was observed. […] NS represents not significant. Table 2 compares acids of EP2 compound while Table 3 compares IOP response seen with esters of certain acids. Esters provide better corneal penetration and improved drug exposure in the anterior chamber compared to acids and are therefore dosed at ⅕th the dose for acids […].

[2] = molecular target: EP2 (Homo sapiens, UniProt P43116); test: EP2 cAMP EC50 (Table 1); type: cell-based
[3] = molecular target: T1, prostaglandin E2 type 2 (EP2) receptors (Homo sapiens, UniProt P43116); test: Assay for binding to prostaglandin E2 receptors (3H-prostaglandin E2 displacement, membranes of transfected cells); settings: displacement of 3H-prostaglandin E2
T1 construct: expressed in transfected cells
Protocol: All operations are performed at 4° C. […] These are lysed by sonification with a Branson Sonifier (Model #250, Branson Ultrasonics Corporation, Danbury, Conn.) in 2 fifteen second bursts. Unlysed cells and debris are removed by centrifugation at 100×g for 10 min. Membranes are then harvested by centrifugation at 45,000×g for 30 minutes. Pelleted membranes are resuspended to 3-10 mg protein per ml, protein concentration being determined according to the method of Bradford [Bradford, M., Anal. Biochem., 72, 248 (1976)]. Resuspended membranes are then stored frozen at −80° C. until use.
Frozen membranes as prepared are thawed and diluted to 1 mg protein per ml in Buffer A. One volume of membrane preparation is combined with 0.05 volume test compound or buffer and one volume of 3 nM 3H-prostaglandin E2 (#TRK 431, Amersham, Arlington Heights, Ill.) in Buffer A. The mixture (205 μL total volume) is incubated for 1 hour at 25° C. The membranes are then recovered by filtration through type GF/C glass fiber filters (#1 205401, Wallac, Gaithersburg, Md.) using a Tomtec harvester (Model Mach II/96, Tomtec, Orange, Conn.). The membranes with bound 3H-prostaglandin E2 are trapped by the filter, the buffer and unbound 3H-prostaglandin E2 pass through the filter into waste. Each sample is then washed 3 times with 3 ml of [50 mM Tris-HCl (pH 7.4), 10 mM MgCl2, 1 mM EDTA]. The filters are then dried by heating in a microwave oven. To determine the amount of 3H-prostaglandin bound to the membranes, the dried filters are placed into plastic bags with scintillation fluid and counted in a LKB 1205 Betaplate reader (Wallac, Gaithersburg, Md.). IC50s are determined from the concentration of test compound required to displace 50% of the specifically bound 3H-prostaglandin E2.

[4] = topical, acid EP2 agonists, Conc 0.1 %, topical, vs vehicle (set at 100%)
[5] = acid EP2 agonists, Conc 0.1 %, topical
[6] = acid EP2 agonists, Conc 0.1 %, time point of maximum IOP reduction
[7] = acid EP2 agonists, Conc 0.1 %, topical, vs vehicle (set at 100%)
[8] = isopropylesters, OHT primates, time point of maximum IOP reduction

Sequence of EP2 (P43116 whole entry): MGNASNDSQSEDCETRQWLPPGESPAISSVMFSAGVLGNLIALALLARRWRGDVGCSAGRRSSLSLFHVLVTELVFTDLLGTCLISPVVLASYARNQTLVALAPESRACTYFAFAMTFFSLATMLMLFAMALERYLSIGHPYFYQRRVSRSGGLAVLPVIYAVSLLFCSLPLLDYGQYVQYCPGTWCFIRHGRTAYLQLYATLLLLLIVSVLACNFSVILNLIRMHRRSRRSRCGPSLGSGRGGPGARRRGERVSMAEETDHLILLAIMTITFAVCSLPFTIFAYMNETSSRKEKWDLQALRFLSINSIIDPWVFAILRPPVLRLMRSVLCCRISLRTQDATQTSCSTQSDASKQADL
T1 sequence (P43116 whole entry): as above

| SMILES | EC50 [2] [nM] | IC50 [3] [nM] | further results |
| --- | --- | --- | --- |
| CS(=O)(=O)N(CCCOc1cc(Cl)cc(Cl)c1)CCCc1ccc(C(=O)O)s1 |  |  | change in vivo at 0.1 % [1, 4]: -11%; ΔΔEmax (mm Hg) [1, 5]: −4.4 mm Hg; Tmax [1, 6]: 2 h |
| O=C(O)CCCCCCC1C(=O)CC[C@@H]1CCc1cccc(C(F)(F)F)c1 (stereo partly shown) |  |  | change in vivo at 0.1 % [1, 4]: -9%; ΔΔEmax (mm Hg) [1, 5]: −3.7 mm Hg; Tmax [1, 6]: 6 h |
| O=C(O)CCc1cccc(CN(Cc2ccc(-c3cccnc3)cc2)S(=O)(=O)c2cccnc2)c1 |  |  | ΔΔEmax (mm Hg) [1, 5]: ns; ΔΔEmax (%) [1, 7]: ns |
| Cn1cnc(S(=O)(=O)N(Cc2ccc(-c3nccs3)cc2)Cc2cccc(OCC(=O)O)c2)c1 |  |  | ΔΔEmax (mm Hg) [1, 5]: ns; ΔΔEmax (%) [1, 7]: ns |
| O=C(O)CCc1cccc(CN(Cc2ccc(-c3cncnc3)cc2)S(=O)(=O)c2ccccn2)c1 |  |  | ΔΔEmax (mm Hg) [1, 5]: ns; ΔΔEmax (%) [1, 7]: ns |
| CS(=O)(=O)N(CCCc1nc(C(=O)O)cs1)CCOc1cc(Cl)cc(Cl)c1 |  |  | change in vivo at 0.1 % [1, 4]: -8%; ΔΔEmax (mm Hg) [1, 5]: −4.3 mm Hg; Tmax [1, 6]: 2 h |
| O=C(O)CCc1cccc(CN(Cc2ccc(-c3cccnc3)cc2)S(=O)(=O)c2ccccc2)c1 |  |  | change in vivo at 0.1 % [1, 4]: -10%; ΔΔEmax (mm Hg) [1, 5]: −3.0 mm Hg; Tmax [1, 6]: 4 h |
| O=C(O)COc1cccc(CN(Cc2ccc(-c3ncccn3)cc2)S(=O)(=O)c2ccccn2)c1 |  |  | ΔΔEmax (mm Hg) [1, 5]: ns; ΔΔEmax (%) [1, 7]: ns |
| CC(C)OC(=O)c1csc(CCCN(CCOc2cc(Cl)cc(Cl)c2)S(C)(=O)=O)c1 |  |  | ΔΔEmax (mmHg) ([1]; isopropylesters, OHT primates, both eyes): −8 (both eyes) mmHg; Tmax [1, 8]: 4 to 6 h |
| CC(C)OC(=O)CCCCCCN(CCCc1cc(Cl)cc(Cl)c1)S(C)(=O)=O [Example 6] | 7 | 6.6 |  |
| CC(C)OC(=O)c1csc(CCCN(CCOc2cc(Cl)cc(Cl)c2)S(C)(=O)=O)n1 [Example 7] | 18 | 5.3 |  |
| CC(C)OC(=O)CCc1cccc(CN(Cc2ccc(-c3cccnc3)cc2)S(=O)(=O)c2ccccc2)c1 [Example 8] | 5.35 | < 12.4 |  |
| CCOC(=O)COc1cccc(CN(Cc2ccc(-n3cccn3)cc2)S(=O)(=O)c2cccnc2)c1 [Example 9] | 10 | 1.48 |  |
| CC(C)OC(=O)CCc1cccc(CN(Cc2ccc(-c3ncccn3)cc2)S(=O)(=O)c2ccccc2)c1 [Example 14] | 3.1 | < 10 |  |
| CC(C)OC(=O)COc1cccc(CN(Cc2ccc(-n3cccn3)cc2)S(=O)(=O)c2ccccn2)c1 [Example 18] | 12 | < 10 |  |
| CC(C)OC(=O)COc1cccc(CN(Cc2ccc(-c3ccccn3)cc2)S(=O)(=O)c2cccnc2)c1 [Example 19] | 4.1 | 7.6 |  |
| CC(C)OC(=O)CCc1cccc(CN(Cc2ccc(-c3ncccn3)cc2)S(=O)(=O)c2ccc(Cl)cc2)c1 [Example 22] | 3.3 | 15.7 |  |
| CC(C)OC(=O)COc1cccc(CN(Cc2ccc(-c3ncccn3)cc2)S(=O)(=O)c2cccnc2)c1 [Example 23] | 5.4 | 22 |  |
| CC(C)OC(=O)CCc1cccc(CN(Cc2ccc(-n3cccn3)cc2)S(=O)(=O)c2nccs2)c1 [Example 25] | 5.9 | < 10 |  |
| CC(C)OC(=O)CCc1cccc(CN(Cc2ccc(-c3ncccn3)cc2)S(=O)(=O)c2nccs2)c1 [Example 26] | 6.4 | < 10 |  |
| O=C(O)COc1cccc(CN(Cc2ccc(-n3cccn3)cc2)S(=O)(=O)c2cccnc2)c1 [drawing 52] |  |  | ΔΔEmax (mm Hg) [1, 5]: −7.0 mm Hg; ΔΔEmax (%) [1, 7]: −21%; Tmax [1, 6]: 4 h |
| O=C(O)COc1cccc(CN(Cc2ccc(-n3cccn3)cc2)S(=O)(=O)c2cccnc2)c1 [drawing 60] |  |  | ΔΔEmax (mm Hg) [1, 5]: −2.6 mm Hg; ΔΔEmax (%) [1, 7]: −6%; Tmax [1, 6]: 4 h |
| CC(C)OC(=O)c1ccc(CCCN(CCCOc2cc(Cl)cc(Cl)c2)S(C)(=O)=O)s1 [drawing 62] |  |  | ΔΔEmax (%) ([1]; isopropylesters, OHT primates, OHT eye): ns; ΔΔEmax (mmHg) ([1]; isopropylesters, OHT primates, OHT eye, 0.1 mg/ml topical): ns; Tmax (h) [1, 8]: ns |

Continued, in another order:

| EC50 [2] [nM] | IC50 [3] [nM] | SMILES | further results |
| --- | --- | --- | --- |
| 8.15 | 3.22 | CC(C)OC(=O)c1ccc(CCCN(CCCOc2cc(Cl)cc(Cl)c2)S(C)(=O)=O)s1 [Example 2] |  |
| 1.48 | 10 | COC(=O)COc1cccc(CN(Cc2ccc(-n3cccn3)cc2)S(=O)(=O)c2cccnc2)c1 [Example 3] |  |
| 5.35 | < 12.4 | CC(C)(C)OC(=O)CCc1cccc(CN(Cc2ccc(-c3cccnc3)cc2)S(=O)(=O)c2ccccc2)c1 [Example 4] |  |
| 4.8 | 4.42 | CC(C)OC(=O)c1ccc(CCCN(CCOc2cc(Cl)cc(Cl)c2)S(C)(=O)=O)s1 [Example 5] |  |
| 8.15 | 3.22 | CC(C)(C)OC(=O)c1ccc(CCCN(CCCOc2cc(Cl)cc(Cl)c2)S(C)(=O)=O)s1 [Example 10] |  |
| 12 | 26 | CC(C)OC(=O)COc1cccc(CN(Cc2ccc(-c3nccs3)cc2)S(=O)(=O)c2cn(C)cn2)c1 [Example 12] |  |
| 3.1 | < 10 | CC(C)OC(=O)CCc1cccc(CN(Cc2ccc(-c3ncccn3)cc2)S(=O)(=O)c2cccnc2)c1 [Example 13] |  |
| 4.9 | < 10 | CC(C)OC(=O)CCc1cccc(CN(Cc2ccc(-c3ncccn3)cc2)S(=O)(=O)c2ccccn2)c1 [Example 15] |  |
| 0.85 | 3 | CC(C)OC(=O)COc1cccc(CN(Cc2ccc(-c3nccs3)cc2)S(=O)(=O)c2cccnc2)c1 [Example 16] |  |
| 7.8 | 3.9 | CC(C)OC(=O)Cc1cccc(CN(Cc2ccc(-c3ncccn3)cc2)S(=O)(=O)c2cccnc2)c1 [Example 17] |  |
| 51.5 | < 10 | CC(C)OC(=O)CCc1cccc(CN(Cc2ccc(-n3cccn3)cc2)S(=O)(=O)c2cccnc2)c1 [Example 20] |  |
| 2.2 | 2.2 | CC(C)OC(=O)Cc1cccc(CN(Cc2ccc(-c3nccs3)cc2)S(=O)(=O)c2cccnc2)c1 [Example 21] |  |
| 54 | 6.64 | CC(C)OC(=O)c1csc(CCCN(CCCc2cccc(Cl)c2)S(C)(=O)=O)n1 [Example 24] |  |
